# According to US4442214A, “Thermo-stable micro-organism” (Development Finance Corporation of New Zealand, priority 1979, dated 1984):
# Read-outs that look alike come from different tables or passages of the source.
# Columns and labels:
# [1] = test system: NADH and succinate oxidases; test: Oxidase system activities (oxygen uptake) with inhibitors; assay type: biochemical; settings: THERMUS T-351 oxidase systems
# Protocol: Oxygen uptake was measured polarographically using a Rank electrode (Rank Brothers, Bottisham, Cambridge, England). The reaction mixture consisted of 0.1 M KH2 PO4 /Na2 HPO4 buffer pH 7.0, a suitable amount of membrane particle protein, 50 μmol of substrate (except in the case of NADH were 5 μmol were used), in a final volume of 2.5 ml.
# Buffers were equilibrated at the desired temperature with sparged air for 30 minutes.
# Particles were equilibrated in the electrode for 2 minutes prior to measurement of oxygen uptake. Rates were measured over the first minute.
# CALDOLYSIN = test: Response of CALDOLYSIN to inhibitors; assay type: biochemical, THERMUS T-351
# [2] = 80° C.; published data; cited from earlier work
Molecule,relative effect on NADH oxidase and succinate oxidase [1],also measured
CCCCCCCc1cc(O)c2ccccc2[n+]1[O-] [2-heptyl-4-hydroxyquinoline-N-oxide],more effective inhibitors of succinate oxidase,
c1ccc(-c2ccnc3c2ccc2c(-c4ccccc4)ccnc23)cc1 [Bathophenanthroline],more effective inhibitors of succinate oxidase,
O=C(O)CN(CCOCCOCCN(CC(=O)O)CC(=O)O)CC(=O)O [EGTA],,% Inhibitor of Activity (CALDOLYSIN; inhibitor 1 mM): 18%; % Inhibitor of Activity (CALDOLYSIN; inhibitor 10 mM): 45%
O=C(O)CI [Iodoacetic acid],,% Inhibitor of Activity (CALDOLYSIN): 60%
O=S(=O)(F)Cc1ccccc1 [Phenylmethyl Sulfonyl Fluoride],,% Inhibitor of Activity (CALDOLYSIN; inhibitor 10 mM): 10%
C=C(C)[C@H]1Cc2c(ccc3c2O[C@@H]2COc4cc(OC)c(OC)cc4[C@@H]2C3=O)O1 [Rotenone],more effect on the NADH oxidase,
CCC1(CCC(C)C)C(=O)NC(=O)NC1=O [amytal],affected NADH and succinate oxidases equally,
antimycin A,more effective inhibitors of succinate oxidase,
"THERMOLYSIN: thermophilic protease from BACILLUS THERMOPROTEOLYTICUS, published data (protein, UniProt P00800 233-548, looked up) Thermolysin: ITGTSTVGVGRGVLGDQKNINTTYSTYYYLQDNTRGNGIFTYDAKYRTTLPGSLWADADNQFFASYDAPAVDAHYYAGVTYDYYKNVHNRLSYDGNNAAIRSSVHYSQGYNNAFWNGSQMVYGDGDGQTFIPLSGGIDVVAHELTHAVTDYTAGLIYQNESGAINEAISDIFGTLVEFYANKNPDWEIGEDVYTPGISGDSLRSMSDPAKYGDPDHYSKRYTGTQDNGGVHINSGIINKAAYLISQGGTHYGVSVVGIGRDKLGKIFYRALTQYLTPTSNFSQLRAAAVQSATDLYGSTSQEVASVKQAFDAVGVK",,HALF-LIFE [2]: 1 h
